Experimental data published in patent US11878965B2, “Inhibitors of peptidylarginine deiminases” (Gilead Sciences, Inc., priority 2020, dated 2024).

Molecular target: human PAD4 (Homo sapiens (Human), UniProt Q9UM07)
Experiment: In Vitro PAD4 BAEE Biochemical Assay
Details: geometric mean of multiple experiments
In short: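 Deimination of BAEE substrate (3 mM) measured as ammonia via o-phthalaldehyde–DTT isoindole fluorescence, 405/535 nm. Tag-free bacterially expressed human PAD4 at 5 nM with 2 mM calcium chloride, pH 7.6 MOPS buffer, 30 min compound preincubation then 2 h reaction, both at 25 °C.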

[1] = recombinant PAD4 5 nM, 2 mM calcium chloride, 3 mM BAEE substrate
[2] = human PAD4, BAEE substrate, 5 nM PAD4, 2 mM calcium chloride, 3 mM BAEE

Chain of human PAD4 (Q9UM07 2-663): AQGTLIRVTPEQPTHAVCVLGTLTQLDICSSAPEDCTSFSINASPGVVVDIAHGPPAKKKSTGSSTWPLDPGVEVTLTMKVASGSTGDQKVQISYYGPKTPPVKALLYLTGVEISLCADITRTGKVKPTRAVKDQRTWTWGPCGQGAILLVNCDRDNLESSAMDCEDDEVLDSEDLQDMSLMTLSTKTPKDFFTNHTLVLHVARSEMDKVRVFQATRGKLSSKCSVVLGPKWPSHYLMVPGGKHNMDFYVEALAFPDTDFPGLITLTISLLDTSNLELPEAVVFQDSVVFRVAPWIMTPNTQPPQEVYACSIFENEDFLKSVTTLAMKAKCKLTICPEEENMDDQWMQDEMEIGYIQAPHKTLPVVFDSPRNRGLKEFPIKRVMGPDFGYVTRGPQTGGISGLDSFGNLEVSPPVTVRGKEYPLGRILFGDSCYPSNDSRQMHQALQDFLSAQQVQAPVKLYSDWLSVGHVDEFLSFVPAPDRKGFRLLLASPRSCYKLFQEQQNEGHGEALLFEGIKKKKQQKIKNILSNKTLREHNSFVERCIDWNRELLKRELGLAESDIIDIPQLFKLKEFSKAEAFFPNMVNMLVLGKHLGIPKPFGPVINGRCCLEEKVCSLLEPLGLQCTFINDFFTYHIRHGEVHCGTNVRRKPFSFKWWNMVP

SMILES | IC50 [1] | IC50 [2]
CS(=O)(=O)N(c1ccc2cc(-c3nc4cc(C(=O)N5CCC[C@@H](N)C5)ccc4n3C3CC3)n(CC3CC3)c2n1)C(F)F [Example 54, (R)-N-(2-(5-(3-aminopiperidine-1-carbonyl)-1-cyclopropyl-1H-benzo[d]imidazol-2-yl)-1-(cyclopropylmethyl)-1H-pyrrolo[2,3-b]pyridin-6-yl)-N-(difluoromethyl) methanesulfonamide] | – | 37.4 nM
COc1cc(C(=O)N2C[C@H](N)CC[C@@H]2C)cc2nc(-c3cc4ccc(-c5cccnc5N5CCOCC5)nc4n3CC3CC3)n(C)c12 [Example 261, ((2S,5R)-5-amino-2-methylpiperidin-1-yl)(2-(1-(cyclopropylmethyl)-6-(2-morpholinopyridin-3-yl)-1H-pyrrolo[2,3-b]pyridin-2-yl)-7-methoxy-1-methyl-1H-benzo[d]imidazol-5-yl)methanone] | – | 457 nM
C=CC(=O)N[C@@H]1CNC[C@H]1NC(=O)c1cc(OC)c2c(c1)nc(-c1cc3ccc(N(C(F)F)S(C)(=O)=O)nc3n1CC1CC1)n2C [Example 80, N-((3R,4R)-4-acrylamidopyrrolidin-3-yl)-2-(1-(cyclopropylmethyl)-6-((N-(difluoromethyl)methyl)sulfonamido)-1H-pyrrolo[2,3-b]pyridin-2-yl)-7-methoxy-1-methyl-1H-benzo[d] imidazole-5-carboxamide] | – | 240 nM
COc1cc(C(=O)N2[C@H]3CC[C@@H]2[C@H](N)C3)cc2nc(-c3cc4ccc([C@@H](C)N5CCCC5=O)nc4n3CC3CC3)n(C3CC3)c12 [Example 245] | – | 31.7 nM
COc1cc(C(=O)N2CCC[C@@H](N)C2)cc2nc(-c3cc4ccc([C@@H](C)NC(=O)c5ccccc5)cc4n3CC3CC3)n(C)c12 [Example 137, N-((R)-1-(2-(5-((R)-3-aminopiperidine-1-carbonyl)-7-methoxy-1-methyl-1H-benzo[d]imidazol-2-yl)-1-(cyclopropylmethyl)-1H-indol-6-yl)ethyl)benzamide] | – | 37.2 nM
COc1cc(C(=O)N2[C@H]3CC[C@@H]2[C@H](N)C3)cc2nc(-c3cc4ccc([C@@H](C)NC(=O)C5(C(F)(F)F)CC5)nc4n3CC3CC3)n(C)c12 [Example 207, N-((R)-1-(2-(5-((1R,2R,4S)-2-amino-7-azabicyclo[2.2.1]heptane-7-carbonyl)-7-methoxy-1-methyl-1H-benzo[d]imidazol-2-yl)-1-(cyclopropylmethyl)-1H-pyrrolo[2,3-b]pyridin-6-yl)ethyl)-1-(trifluoromethyl)cyclopropane-1-carboxamide] | – | 240 nM
C[C@H]1CCCS(=O)(=O)N1c1ccc2cc(-c3nc4cc(C(=O)N5[C@H]6CC[C@@H]5[C@H](N)C6)ccc4n3C3CC3)n(CC3CC3)c2n1 [Example 98, ((1R,2R,4S)-2-amino-7-azabicyclo[2.2.1]heptan-7-yl) (1-cyclopropyl-2-(1-(cyclopropylmethyl)-6-((S)-3-methyl-1,1-dioxido-1,2-thiazinan-2-yl)-1H-pyrrolo[2,3-b]pyridin-2-yl)-1H-benzo[d]imidazol-5-yl)methanone] | – | 18.9 nM
COc1cc(C(=O)N2[C@H]3CC[C@@H]2[C@H](N)C3)cc2nc(-c3cc4ccc([C@@H](C)NC(=O)c5cnn(C(F)F)c5)nc4n3CC3CC3)n(C)c12 [Example 205, N-((R)-1-(2-(5-((1R,2R,4S)-2-amino-7-azabicyclo[2.2.1]heptane-7-carbonyl)-7-methoxy-1-methyl-1H-benzo[d]imidazol-2-yl)-1-(cyclopropylmethyl)-1H-pyrrolo[2,3-b]pyridin-6-yl)ethyl)-1-(difluoromethyl)-1H-pyrazole-4-carboxamide] | – | 79.7 nM

Results, then the molecule that gave them:

IC50 [1] | IC50 [2] | SMILES
113 nM | – | COc1cc(C(=O)N2C[C@H](N)[C@@H]3CC[C@H]2C3)cc2nc(-c3cc4ccc([C@@H](C)NC(=O)c5ccc(C(F)(F)F)nc5)nc4n3CC3CC3)n(C)c12 [Example 313, N-((R)-1-(2-(5-((1S,4R,5R)-4-amino-2-azabicyclo[3.2.1]octane-2-carbonyl)-7-methoxy-1-methyl-1H-benzo[d]imidazol-2-yl)-1-(cyclopropylmethyl)-1H-pyrrolo[2,3-b]pyridin-6-yl)ethyl)-6-(trifluoromethyl)nicotinamide]
– | 643 nM | COc1cc(C(=O)N2C[C@H](N)CC[C@@H]2C)cc2nc(-c3cc4ccc(N5C(=O)CCCC5C)nc4n3CC3CC3)n(C)c12 (stereo partly drawn) [Example 281, 1-(2-(5-((2S,5R)-5-amino-2-methylpiperidine-1-carbonyl)-7-methoxy-1-methyl-1H-benzo[d]imidazol-2-yl)-1-(cyclopropylmethyl)-1H-pyrrolo[2,3-b]pyridin-6-yl)-6-methylpiperidin-2-one]
129 nM | – | COc1cc(C(=O)N2C[C@H](N)[C@@H]3CC[C@H]2C3)cc2nc(-c3cc4ccc([C@@H](C)NC(=O)C(C)(C)CC(F)(F)F)nc4n3CC3CC3)n(C)c12 [Example 329, N-((R)-1-(2-(5-((1S,4R,5R)-4-amino-2-azabicyclo[3.2.1]octane-2-carbonyl)-7-methoxy-1-methyl-1H-benzo[d]imidazol-2-yl)-1-(cyclopropylmethyl)-1H-pyrrolo[2,3-b]pyridin-6-yl)ethyl)-4,4,4-trifluoro-2,2-dimethylbutanamide]
– | 13 nM | COc1cc(C(=O)N2[C@H]3CC[C@@H]2[C@H](N)C3)cc2nc(-c3cc4ccc([C@@H](C)NC(=O)c5cnn(C)c5)cc4n3CC3CC3)n(C)c12 [Example 135, N-((R)-1-(2-(5-((1R,2R,4S)-2-amino-7-azabicyclo[2.2.1]heptane-7-carbonyl)-7-methoxy-1-methyl-1H-benzo[d]imidazol-2-yl)-1-(cyclopropylmethyl)-1H-indol-6-yl)ethyl)-1-methyl-1H-pyrazole-4-carboxamide]
– | 141 nM | COc1cc(C(=O)N2CC[C@@H](O)[C@@H](N)C2)cc2nc(-c3cc4ccc(N(C(F)F)S(C)(=O)=O)nc4n3CC3CC3)n(C)c12 [Example 51, N-(2-(5-((3S,4R)-3-amino-4-hydroxypiperidine-1-carbonyl)-7-methoxy-1-methyl-1H-benzo[d]imidazol-2-yl)-1-(cyclopropylmethyl)-1H-pyrrolo [2,3-b]pyridin-6-yl)-N-(difluoromethyl) methanesulfonamide]
84.2 nM | – | COc1cc(C(=O)N2C[C@H](N)[C@@H]3CC[C@H]2C3)cc2nc(-c3cc4ccc([C@@H](C)NC(=O)[C@@]5(C)CC5(F)F)nc4n3CC3CC3)n(C)c12 [Example 332, (R)-N-((R)-1-(2-(5-((1S,4R,5R)-4-amino-2-azabicyclo[3.2.1]octane-2-carbonyl)-7-methoxy-1-methyl-1H-benzo[d]imidazol-2-yl)-1-(cyclopropylmethyl)-1H-pyrrolo[2,3-b]pyridin-6-yl)ethyl)-2,2-difluoro-1-methylcyclopropane-1-carboxamide]
– | 102 nM | COc1cc(C(=O)N2CCC[C@@H](N)C2)cc2nc(-c3cc4cc(F)c([C@@H](C)NC(=O)c5cnn(C(F)F)c5)cc4n3CC3CC3)n(C)c12 [Example 151, N-((R)-1-(2-(5-((R)-3-aminopiperidine-1-carbonyl)-7-methoxy-1-methyl-1H-benzo[d]imidazol-2-yl)-1-(cyclopropylmethyl)-5-fluoro-1H-indol-6-yl)ethyl)-1-(difluoromethyl)-1H-pyrazole-4-carboxamide]
